Laboratory results from ChEMBL document CHEMBL1144019 (Bioorg Med Chem, 2008).
Values after ≈ are worked out from the molar mass of the structure shown.

Key:
Format in all cases: functional
Escherichia coli [1] = test: Antibacterial activity against Toho 2 producing Escherichia coli by standard serial agar dilution method
Streptococcus pneumoniae = test: Antibacterial activity against penicillin-resistant Streptococcus pneumoniae SR-16675 by standard serial agar dilution method
Moraxella catarrhalis = test: Antibacterial activity against Moraxella catarrhalis ATCC 43617 by standard serial agar dilution method
Staphylococcus aureus = test: Antibacterial activity against Staphylococcus aureus Smith by standard serial agar dilution method
Enterobacter cloacae [2] = test: Antibacterial activity against Enterobacter cloacae ATCC 13047 by standard serial agar dilution method
Enterobacter cloacae [3] = test: Antibacterial activity against AmpC producing Enterobacter cloacae SR-4321 by standard serial agar dilution method
Pseudomonas aeruginosa [4] = test: Antibacterial activity against imipenem-resistant Pseudomonas aeruginosa SR-6554 by standard serial agar dilution method
Pseudomonas aeruginosa [5] = test: Antibacterial activity against Pseudomonas aeruginosa SR24 by standard serial agar dilution method
Haemophilus influenzae [6] = test: Antibacterial activity against beta-lactamase negative ampicillin-resistant Haemophilus influenzae SR-11435 by standard serial agar dilution method
Pseudomonas aeruginosa [7] = test: Antibacterial activity against AmpC hyperproducing Pseudomonas aeruginosa SR24-12 by standard serial agar dilution method
Escherichia coli [8] = test: Antibacterial activity against Escherichia coli SR-21003 by standard serial agar dilution method
Haemophilus influenzae [9] = test: Antibacterial activity against Haemophilus influenzae ATCC 49766 by standard serial agar dilution method
Pseudomonas aeruginosa [10] = test: Antibacterial activity against Pseudomonas aeruginosa SR-5393 by standard serial agar dilution method

Compound | MIC (Escherichia coli [1]) | MIC (Streptococcus pneumoniae) | MIC (Moraxella catarrhalis) | MIC (Staphylococcus aureus) | MIC (Enterobacter cloacae [2]) | MIC (Enterobacter cloacae [3]) | MIC (Pseudomonas aeruginosa [4]) | MIC (Pseudomonas aeruginosa [5]) | MIC (Haemophilus influenzae [6]) | MIC (Pseudomonas aeruginosa [7]) | MIC (Escherichia coli [8]) | MIC (Haemophilus influenzae [9]) | MIC (Pseudomonas aeruginosa [10])
CNCCn1nnc2c1ccc[n+]2CC1=C(C(=O)[O-])N2C(=O)[C@@H](NC(=O)/C(=N\O[C@@H](C)C(=O)O)c3nc(N)sc3Cl)[C@H]2SC1 | 2 µg/mL (≈ 3.01 µM) | 2 µg/mL (≈ 3.01 µM) | 0.032 µg/mL (≈ 0.0481 µM) | 4 µg/mL (≈ 6.01 µM) | 0.5 µg/mL (≈ 0.752 µM) | 8 µg/mL (≈ 12 µM) | 64 µg/mL (≈ 96.2 µM) | 2 µg/mL (≈ 3.01 µM) | 0.5 µg/mL (≈ 0.752 µM) | 64 µg/mL (≈ 96.2 µM) | 0.25 µg/mL (≈ 0.376 µM) | 0.125 µg/mL (≈ 0.188 µM) | 8 µg/mL (≈ 12 µM)
C[C@H](O/N=C(\C(=O)N[C@@H]1C(=O)N2C(C(=O)[O-])=C(C[n+]3cccc4c3ccn4CC(N)=O)CS[C@H]12)c1nc(N)sc1Cl)C(=O)O | 2 µg/mL (≈ 3.02 µM) | 2 µg/mL (≈ 3.02 µM) | 0.016 µg/mL (≈ 0.0241 µM) | 2 µg/mL (≈ 3.02 µM) | 0.5 µg/mL (≈ 0.754 µM) | 4 µg/mL (≈ 6.03 µM) | 16 µg/mL (≈ 24.1 µM) | 1 µg/mL (≈ 1.51 µM) | 0.063 µg/mL (≈ 0.095 µM) | 4 µg/mL (≈ 6.03 µM) | 0.25 µg/mL (≈ 0.377 µM) | 0.032 µg/mL (≈ 0.0483 µM) | 4 µg/mL (≈ 6.03 µM)
CNCCn1ccc2c1ccc[n+]2CC1=C(C(=O)[O-])N2C(=O)[C@@H](NC(=O)/C(=N\O[C@@H](C)C(=O)O)c3nc(N)sc3Cl)[C@H]2SC1 | 2 µg/mL (≈ 3.02 µM) | 4 µg/mL (≈ 6.03 µM) | 0.032 µg/mL (≈ 0.0483 µM) | 2 µg/mL (≈ 3.02 µM) | 0.5 µg/mL (≈ 0.754 µM) | 2 µg/mL (≈ 3.02 µM) | 8 µg/mL (≈ 12.1 µM) | 1 µg/mL (≈ 1.51 µM) | 0.125 µg/mL (≈ 0.188 µM) | 4 µg/mL (≈ 6.03 µM) | 0.5 µg/mL (≈ 0.754 µM) | 0.032 µg/mL (≈ 0.0483 µM) | 2 µg/mL (≈ 3.02 µM)
C[C@H](O/N=C(\C(=O)N[C@@H]1C(=O)N2C(C(=O)[O-])=C(C[n+]3cccc4c3ccn4CCNC(N)=O)CS[C@H]12)c1nc(N)sc1Cl)C(=O)O | 2 µg/mL (≈ 2.89 µM) | 4 µg/mL (≈ 5.78 µM) | 0.032 µg/mL (≈ 0.0462 µM) | 4 µg/mL (≈ 5.78 µM) | 0.5 µg/mL (≈ 0.722 µM) | 4 µg/mL (≈ 5.78 µM) | 16 µg/mL (≈ 23.1 µM) | 1 µg/mL (≈ 1.44 µM) | 0.063 µg/mL (≈ 0.091 µM) | 8 µg/mL (≈ 11.6 µM) | 0.25 µg/mL (≈ 0.361 µM) | 0.032 µg/mL (≈ 0.0462 µM) | 4 µg/mL (≈ 5.78 µM)
C[C@H](O/N=C(\C(=O)N[C@@H]1C(=O)N2C(C(=O)[O-])=C(C[n+]3cccc4c3ccn4CC(=O)O)CS[C@H]12)c1nc(N)sc1Cl)C(=O)O | 4 µg/mL (≈ 6.02 µM) | 4 µg/mL (≈ 6.02 µM) | 0.032 µg/mL (≈ 0.0482 µM) | 8 µg/mL (≈ 12 µM) | 1 µg/mL (≈ 1.51 µM) | 16 µg/mL (≈ 24.1 µM) | 32 µg/mL (≈ 48.2 µM) | 2 µg/mL (≈ 3.01 µM) | 0.063 µg/mL (≈ 0.0949 µM) | 32 µg/mL (≈ 48.2 µM) | 0.5 µg/mL (≈ 0.753 µM) | 0.016 µg/mL (≈ 0.0241 µM) | 4 µg/mL (≈ 6.02 µM)
CNCCCc1cc[n+](CC2=C(C(=O)[O-])N3C(=O)[C@@H](NC(=O)/C(=N\O[C@@H](C)C(=O)O)c4nc(N)sc4Cl)[C@H]3SC2)cc1 | 4 µg/mL (≈ 6.27 µM) | 4 µg/mL (≈ 6.27 µM) | 0.032 µg/mL (≈ 0.0501 µM) | 8 µg/mL (≈ 12.5 µM) | 1 µg/mL (≈ 1.57 µM) | 8 µg/mL (≈ 12.5 µM) | 16 µg/mL (≈ 25.1 µM) | 1 µg/mL (≈ 1.57 µM) | 0.25 µg/mL (≈ 0.392 µM) | 8 µg/mL (≈ 12.5 µM) | 1 µg/mL (≈ 1.57 µM) | 0.125 µg/mL (≈ 0.196 µM) | 4 µg/mL (≈ 6.27 µM)
CC(=O)NCCn1ccc2c1ccc[n+]2CC1=C(C(=O)[O-])N2C(=O)[C@@H](NC(=O)/C(=N\O[C@@H](C)C(=O)O)c3nc(N)sc3Cl)[C@H]2SC1 | 2 µg/mL (≈ 2.89 µM) | 4 µg/mL (≈ 5.79 µM) | 0.032 µg/mL (≈ 0.0463 µM) | 4 µg/mL (≈ 5.79 µM) | 0.5 µg/mL (≈ 0.723 µM) | 4 µg/mL (≈ 5.79 µM) | 16 µg/mL (≈ 23.1 µM) | 2 µg/mL (≈ 2.89 µM) | 0.125 µg/mL (≈ 0.181 µM) | 8 µg/mL (≈ 11.6 µM) | 0.25 µg/mL (≈ 0.362 µM) | 0.032 µg/mL (≈ 0.0463 µM) | 4 µg/mL (≈ 5.79 µM)
C[C@H](O/N=C(\C(=O)N[C@@H]1C(=O)N2C(C(=O)[O-])=C(C[n+]3ccc(NC4CNC4)cc3)CS[C@H]12)c1nc(N)sc1Cl)C(=O)O | 4 µg/mL (≈ 6.28 µM) | 4 µg/mL (≈ 6.28 µM) | 0.016 µg/mL (≈ 0.0251 µM) | 2 µg/mL (≈ 3.14 µM) | 0.5 µg/mL (≈ 0.785 µM) | 4 µg/mL (≈ 6.28 µM) | 8 µg/mL (≈ 12.6 µM) | 0.5 µg/mL (≈ 0.785 µM) | 0.25 µg/mL (≈ 0.392 µM) | 4 µg/mL (≈ 6.28 µM) | 0.5 µg/mL (≈ 0.785 µM) | 0.063 µg/mL (≈ 0.0989 µM) | 2 µg/mL (≈ 3.14 µM)
CNCCn1c(N)nc2c[n+](CC3=C(C(=O)[O-])N4C(=O)[C@@H](NC(=O)/C(=N\O[C@@H](C)C(=O)O)c5nc(N)sc5Cl)[C@H]4SC3)ccc21 | 1 µg/mL (≈ 1.47 µM) | 4 µg/mL (≈ 5.89 µM) | 0.032 µg/mL (≈ 0.0471 µM) | 16 µg/mL (≈ 23.6 µM) | 0.5 µg/mL (≈ 0.736 µM) | 4 µg/mL (≈ 5.89 µM) | 8 µg/mL (≈ 11.8 µM) | 1 µg/mL (≈ 1.47 µM) | 0.125 µg/mL (≈ 0.184 µM) | 4 µg/mL (≈ 5.89 µM) | 0.25 µg/mL (≈ 0.368 µM) | 0.032 µg/mL (≈ 0.0471 µM) | 2 µg/mL (≈ 2.94 µM)
C[C@H](O/N=C(\C(=O)N[C@@H]1C(=O)N2C(C(=O)[O-])=C(C[n+]3cccc4[nH]ccc43)CS[C@H]12)c1nc(N)sc1Cl)C(=O)O | 1 µg/mL (≈ 1.65 µM) | 2 µg/mL (≈ 3.3 µM) | 0.016 µg/mL (≈ 0.0264 µM) | 1 µg/mL (≈ 1.65 µM) | 0.25 µg/mL (≈ 0.413 µM) | 2 µg/mL (≈ 3.3 µM) | 8 µg/mL (≈ 13.2 µM) | 1 µg/mL (≈ 1.65 µM) | 0.032 µg/mL (≈ 0.0528 µM) | 4 µg/mL (≈ 6.6 µM) | 0.25 µg/mL (≈ 0.413 µM) | 0.016 µg/mL (≈ 0.0264 µM) | 2 µg/mL (≈ 3.3 µM)
